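48-hour exposure; five concentrations; linearly interpolated endpoints. At the TGI there is no net growth.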
Legend:
Assay in all cases: NCI-60 cell line screen, 48 h
HOP-62 NSCLC = tested on: HOP-62 NSCLC
LOX IMVI melanoma = tested on: LOX IMVI melanoma
M14 melanoma = tested on: M14 melanoma
MDA-MB-231 breast = tested on: MDA-MB-231 breast
MDA-N = tested on: MDA-N
RPMI-8226 leukemia = tested on: RPMI-8226 leukemia
SF-295 CNS = tested on: SF-295 CNS
SK-MEL-28 melanoma = tested on: SK-MEL-28 melanoma
SK-MEL-5 melanoma = tested on: SK-MEL-5 melanoma
SR leukemia = tested on: SR leukemia
UACC-62 melanoma = tested on: UACC-62 melanoma

SMILES | TGI (HOP-62 NSCLC) [µM] | TGI (LOX IMVI melanoma) [µM] | TGI (M14 melanoma) [µM] | TGI (MDA-MB-231 breast) [µM] | TGI (MDA-N) [µM] | TGI (RPMI-8226 leukemia) [µM] | TGI (SF-295 CNS) [µM] | TGI (SK-MEL-28 melanoma) [µM] | TGI (SK-MEL-5 melanoma) [µM] | TGI (SR leukemia) [µM] | TGI (UACC-62 melanoma) [µM]
O=[N+]([O-])c1cc(C=NC23CC4CC(CC(C4)C2)C3)ccc1Cl | 17.7 | 36.9 | 26.1 | 24.7 | 32.3 | 16.8 | 96.9 | 38 | 55.4 | 12.9 | 20.9
Cc1ccccc1C(=N)c1ccccc1Cc1cccc2ccccc12 | 43.5 | 31.9 | > 100 | > 100 | 65.7 | 33.3 | 62.5 | 54.1 | 34.5 | 41.2 | 38.6
N#CC(NCc1cccc(CNC(C#N)c2ccccc2)c1)c1ccccc1 (stereo not given) | > 100 | 28.9 | 62.2 | 74.2 | > 100 | 65.4 | > 100 | 33.8 | > 100 | > 100 | > 100
CC(=O)c1c2c(c3ccccc3c1O)O[C@@H]1OCC[C@H]21 | > 100 | > 100 | > 100 | > 100 | > 100 | > 100 | > 100 | > 100 | > 100 | > 100 | > 100
Nn1c(-c2ccccc2)n[nH]c1=O | > 100 | > 100 | > 100 | > 100 | > 100 | > 100 | > 100 | > 100 | > 100 | > 100 | > 100
Cc1ccnc(NS(=O)(=O)c2ccc(N=[N+]=[N-])cc2)n1 | > 100 | > 100 | > 100 | > 100 | > 100 | > 100 | > 100 | > 100 | > 100 | > 100 | > 100
CCCCCC1=CC(=O)C1(Cl)Cl | 48.8 | 21.2 | 45.6 | 31 | 28.3 | 7.87 | 62.1 | 36.8 | 24 | 19.4 | 32.2
Cc1oc2c(cc(O)c3cc(O)ccc32)c2cccc1-2 | > 100 | > 100 | > 100 | > 100 | > 100 | > 100 | > 100 | > 100 | > 100 | > 100 | > 100
Oc1ccccc1CNCc1nc2ccccc2[nH]1 | > 100 | > 100 | > 100 | > 100 | > 100 | 73.1 | > 100 | > 100 | 65.6 | > 100 | > 100
CC(=O)/C=C/C1=C(C)CCCC1(C)CC(C)C (stereo not given) | > 100 | 39.9 | > 100 | > 100 | > 100 | 36 | > 100 | > 100 | 49.1 | 36.8 | 87.3
Cc1cccc(Cn2c3c(c4cc(O)ccc42)C(=O)c2ccccc2C3=O)c1 | 40.9 | > 100 | > 100 | > 70.8 | > 100 | > 30.6 | 21.9 | > 100 | > 100 | > 100 | > 100
CCOC(=O)N1CCN(Cc2cc(=O)n3ccc(C)cc3n2)CC1 | > 100 | > 100 | > 100 | > 100 | > 100 | > 100 | > 100 | > 100 | > 100 | > 100 | > 100
C=C1CCN2CC[C@@H](OC(=O)/C(C)=C\C)[C@@H]12 | > 100 | > 100 | > 100 | > 100 | > 100 | > 100 | > 100 | > 100 | > 100 | > 100 | > 100
Cc1ccc(NC(=O)c2ccc(OP(=O)(O)Nc3ccc(C)cc3)cc2)cc1 | > 100 | > 100 | > 100 | > 100 | > 100 | > 100 | > 100 | > 100 | > 100 | > 100 | > 100
O=C(/C=C/c1ccccc1)C[C@@H](O)C[C@@H]1CC=CC(=O)O1 | 33.7 | 7.02 | 23.5 | 27.5 | 14.3 | > 24.5 | 28 | 24.9 | 26.6 | 11.5 | 14.5
CCCCOC(=O)Nc1ccc(S(=O)(=O)Nc2ccccc2Cl)cc1 | 37.7 | 34.7 | 37.7 | 42 | 33.8 | 36.8 | 32.9 | 36.2 | 24.3 | 26.8 | 32.7
O=S(=O)(c1ccccc1)c1cccc2c1NCCC2 | > 100 | > 100 | > 100 | > 100 | > 100 | > 100 | > 100 | > 100 | 52 | > 100 | > 10
Cc1cc(-c2nc3ccc(F)cc3s2)ccc1NC(=O)[C@H](C)N | 24.5 | 3.99 | 3.94 | 22.6 | 6.19 | 13.8 | 24.7 | 29.3 | 26.3 | 5.65 | 3.6
NS(=O)(=O)c1nnc(NC(=O)Nc2ccc(Cl)c(Cl)c2)s1 | 39.7 | 36.4 | 32.3 | 67.1 | 44.8 | 51.5 | > 100 | 39.3 | 30.8 | 60.6 | 31.2
O=[N+]([O-])c1ccc2[nH]nc(OCc3ccccc3Cl)c2c1 | > 100 | > 100 | > 100 | > 100 | > 100 | > 100 | > 100 | > 100 | > 100 | > 100 | 88.8
